Columns and labels:
[1] = non-human primate toxicology studies; assay type: in vivo; conditions: up to 29 days and up to 500 mg/kg/day
[2] = tested on: adult participants hospitalized for severe COVID-19; experiment: Phase 1b severe COVID-19 study: oxygenation (SpO2, SpO2/FiO2 ratio, days without oxygen support, VFD, RFFD); assay type: in vivo, human; conditions: for Change from baseline in SpO2/FiO2 ratio, point estimate / Change from baseline in SpO2/FiO2 ratio, adjusted treatment difference RIPK1 Inhibitor vs placebo: MMRM, LOCF; for median change from baseline in SpO2/FiO2 ratio: observed data; for median change in SpO2/FiO2 ratio from baseline: LOCF imputation
Procedure: This study was a multinational, multi-center, double-blind, 2:1 randomized (RIPK1 Inhibitor to placebo), placebo-controlled study in adult participants hospitalized for severe COVID-19.
Participants were assigned to treatment according to randomization list. Six RIPK1 Inhibitor 50 mg capsules (300 mg) or matching placebo capsules were administered orally in fasting or fed conditions twice a day (BID). For participants intubated with feeding tube in place, the IMPs were given as suspension by feeding tube.
The main secondary clinical assessments endpoints included: • Time to 50% decrease from baseline in CRP level • Time to improvement of oxygenation as measured by oxygen saturation≥92% breathing room air over 48 hours or until discharge • Change from baseline in SPO2/FiO2 ratio at Day 7
Other secondary clinical assessment endpoints included: • Number of Days without need for oxygen support and alive (oxygen saturation≥92% breathing room air) up to Day 28 • Numbers of Ventilator-free days and alive up to Day 28 • Change from baseline in markers of inflammation (White blood cell count, differential blood lymphocytes, neutrophil to lymphocyte ratio, IL-6) and D-Dimer at Day 7 and EOT • Incidence of Deaths up to Day 28 • Percentage of participants receiving thrombolytic treatment up to Day 28 • Percentage of participants receiving vasopressor treatment up to Day 28 • Numbers of Respiratory Failure-Free Days (RFFD) and alive up to Day 28
The time to improvement of oxygenation as measured by oxygen saturation>92% breathing room air over 48 hours or until discharge was estimated using the Kaplan-Meier approach and treatment arms were compared in an exploratory fashion using the log-rank test.
Presence of SO2≥92% without use of any supplemental oxygen device on two consecutive days (earliest occurrence) or at day of discharge was considered as event. If such criterion was not met, time to event was censored at the time point of the last observation of SpO2 collected. For participants who died during the study without experiencing the event, similar LOCF approached was used and a sensitivity analysis was performed as described in Section 1.7.1.1.2.1.
The number and percentage of participants who experience the event without applying censoring rules was reported at Days 3, 5, 7, 15 and 28.
The analysis of the change from baseline in SpO2/FiO2 ratio was based on a MMRM model fitted on observed values for Days 2, 3, 4, 5, 6, 7 and 15. The model included fixed effects for participant-specific SpO2/FiO2 ratio at baseline, respective visit, treatment group, and visit-by-treatment group interaction, and random effects for sites. Repeated measurements for each visit were taken within participant assuming an unstructured covariance pattern within treatment group.
The LS means for the difference in change from baseline at Day 7 between RIPK1 Inhibitor and placebo were provided, jointly with the corresponding 90% confidence interval.
The point estimate of the change from baseline in SpO2/FiO2 ratio and the difference between treatment groups and two-sided 90% confidence interval value were reported for Day 2 to 7 and EOT as described above. Time profile plots of point estimates of the change from baseline (+/−90% Cis) were presented by treatment group.
Missing values for the change from baseline in SpO2/FiO2 ratio were replaced following the LOCF approach, regardless if occurring before or after discontinuation/discharge/death. In case no LOCF could be identified (e.g., no post-baseline value prior to Day 2 to replace a missing Day 2 result), the missing value was not imputed. A sensitivity analysis was performed by repeating the above analysis without any imputation of missing values.

[3] = 600 mg, Baseline, Efficacy population
[4] = 600 mg, Day 2, Efficacy population
[5] = 600 mg, Day 3, Efficacy population
[6] = 600 mg, Day 4, Efficacy population
[7] = 600 mg, Day 5, Efficacy population
[8] = 600 mg, Day 6, Efficacy population
[9] = 600 mg, Day 7, Efficacy population
[10] = 600 mg, Day 8, Efficacy population
[11] = 600 mg, Day 9, Efficacy population
[12] = 600 mg, Day 10, Efficacy population
[13] = 600 mg, Day 11, Efficacy population
[14] = 600 mg, Day 12, Efficacy population
[15] = 600 mg, Day 13, Efficacy population
[16] = 600 mg, Day 14, Efficacy population
[17] = 600 mg, Day 15, Efficacy population
[18] = 600 mg, up to Day 28, Efficacy population

CN1C(=O)[C@@H](NC(=O)c2nnc(Cc3ccccc3)[nH]2)COc2cccnc21 [RIPK1 Inhibitor, (S)-5-benzyl-N-(5-methyl-4-oxo-2,3,4,5-tetrahydropyrido[3,2-b][1,4]oxazepin-3-yl)-4H-1,2,4-triazole-3-carboxamide]
safety concerns in toxicology studies [1]: did not raise any safety concerns
difference of VFDs or RFFDs between the 2 treatment arms in favor of RIPK1 Inhibitor ([2]; 600 mg vs placebo, based on mean values, 28-day study period): 3
difference in mean days (without oxygen support, VFDs, RFFDs) in favor of RIPK1 Inhibitor group ([2]; 600 mg vs placebo, up to 15-day treatment period): 1 days
SpO2/FiO2 ratio, raw data, Mean [2, 3]: 298.0
SpO2/FiO2 ratio, raw data, Median [2, 3]: 306.3
SpO2/FiO2 ratio, change from baseline, Mean [2, 4]: 16.8
SpO2/FiO2 ratio, change from baseline, Median [2, 4]: 3.3
SpO2/FiO2 ratio, raw data, Mean [2, 4]: 314.8
SpO2/FiO2 ratio, raw data, Median [2, 4]: 290.9
Change from baseline in SpO2/FiO2 ratio, point estimate ([2]; 600 mg, Day 02, Efficacy population): 72.02
median change from baseline in SpO2/FiO2 ratio ([2]; 600 mg, Day 2): 3.3
SpO2/FiO2 ratio, change from baseline, Mean [2, 5]: 43.9
SpO2/FiO2 ratio, change from baseline, Median [2, 5]: 30.9
SpO2/FiO2 ratio, raw data, Mean [2, 5]: 337.9
SpO2/FiO2 ratio, raw data, Median [2, 5]: 330.6
median change in SpO2/FiO2 ratio from baseline ([2]; 600 mg, Day 3): 29.0
Change from baseline in SpO2/FiO2 ratio, point estimate ([2]; 600 mg, Day 03, Efficacy population): 97.90
SpO2/FiO2 ratio, change from baseline, Mean [2, 6]: 50.8
SpO2/FiO2 ratio, change from baseline, Median [2, 6]: 47.3
SpO2/FiO2 ratio, raw data, Mean [2, 6]: 340.4
SpO2/FiO2 ratio, raw data, Median [2, 6]: 355.5
median change in SpO2/FiO2 ratio from baseline ([2]; 600 mg, Day 4): 38.1
Change from baseline in SpO2/FiO2 ratio, point estimate ([2]; 600 mg, Day 04, Efficacy population): 104.61
median change from baseline in SpO2/FiO2 ratio ([2]; 600 mg, Day 4): 47.3
SpO2/FiO2 ratio, change from baseline, Mean [2, 7]: 62.7
SpO2/FiO2 ratio, change from baseline, Median [2, 7]: 69.6
SpO2/FiO2 ratio, raw data, Mean [2, 7]: 350.5
SpO2/FiO2 ratio, raw data, Median [2, 7]: 356.1
median change in SpO2/FiO2 ratio from baseline ([2]; 600 mg, Day 5): 70.8
Change from baseline in SpO2/FiO2 ratio, point estimate ([2]; 600 mg, Day 05, Efficacy population): 121.79
SpO2/FiO2 ratio, change from baseline, Mean [2, 8]: 72.5
SpO2/FiO2 ratio, change from baseline, Median [2, 8]: 73.9
SpO2/FiO2 ratio, raw data, Mean [2, 8]: 358.7
SpO2/FiO2 ratio, raw data, Median [2, 8]: 384.0
median change in SpO2/FiO2 ratio from baseline ([2]; 600 mg, Day 6): 113.8
Change from baseline in SpO2/FiO2 ratio, point estimate ([2]; 600 mg, Day 06, Efficacy population): 134.66
Change from baseline in SpO2/FiO2 ratio, adjusted treatment difference RIPK1 Inhibitor vs placebo [2, 8]: 28.71
median change from baseline in SpO2/FiO2 ratio ([2]; 600 mg, Day 6): 73.9
SpO2/FiO2 ratio, change from baseline, Mean [2, 9]: 89.2
SpO2/FiO2 ratio, change from baseline, Median [2, 9]: 124.1
SpO2/FiO2 ratio, raw data, Mean [2, 9]: 367.1
SpO2/FiO2 ratio, raw data, Median [2, 9]: 418.2
median change in SpO2/FiO2 ratio from baseline ([2]; 600 mg, Day 7): 115.3
Change from baseline in SpO2/FiO2 ratio, point estimate ([2]; 600 mg, Day 07, Efficacy population): 142.21
Change from baseline in SpO2/FiO2 ratio, adjusted treatment difference RIPK1 Inhibitor vs placebo [2, 9]: 25.24
median change from baseline in SpO2/FiO2 ratio ([2]; 600 mg, Day 7): 124.1
SpO2/FiO2 ratio, change from baseline, Mean [2, 10]: 99.2
SpO2/FiO2 ratio, change from baseline, Median [2, 10]: 131.4
SpO2/FiO2 ratio, raw data, Mean [2, 10]: 371.5
SpO2/FiO2 ratio, raw data, Median [2, 10]: 433.3
median change in SpO2/FiO2 ratio from baseline ([2]; 600 mg, Day 8): 125.6
SpO2/FiO2 ratio, change from baseline, Mean [2, 11]: 111.2
SpO2/FiO2 ratio, change from baseline, Median [2, 11]: 150.0
SpO2/FiO2 ratio, raw data, Mean [2, 11]: 381.8
SpO2/FiO2 ratio, raw data, Median [2, 11]: 445.2
SpO2/FiO2 ratio, change from baseline, Mean [2, 12]: 119.8
SpO2/FiO2 ratio, change from baseline, Median [2, 12]: 133.8
SpO2/FiO2 ratio, raw data, Mean [2, 12]: 386.7
SpO2/FiO2 ratio, raw data, Median [2, 12]: 447.6
SpO2/FiO2 ratio, change from baseline, Mean [2, 13]: 111.0
SpO2/FiO2 ratio, change from baseline, Median [2, 13]: 153.7
SpO2/FiO2 ratio, raw data, Mean [2, 13]: 373.2
SpO2/FiO2 ratio, raw data, Median [2, 13]: 445.2
SpO2/FiO2 ratio, change from baseline, Mean [2, 14]: 138.8
SpO2/FiO2 ratio, change from baseline, Median [2, 14]: 190.3
SpO2/FiO2 ratio, raw data, Mean [2, 14]: 401.0
SpO2/FiO2 ratio, raw data, Median [2, 14]: 452.4
SpO2/FiO2 ratio, change from baseline, Mean [2, 15]: 129.1
SpO2/FiO2 ratio, change from baseline, Median [2, 15]: 195.1
SpO2/FiO2 ratio, raw data, Mean [2, 15]: 389.5
SpO2/FiO2 ratio, raw data, Median [2, 15]: 457.1
SpO2/FiO2 ratio, change from baseline, Mean [2, 16]: 139.4
SpO2/FiO2 ratio, change from baseline, Median [2, 16]: 192.7
SpO2/FiO2 ratio, raw data, Mean [2, 16]: 414.8
SpO2/FiO2 ratio, raw data, Median [2, 16]: 454.8
SpO2/FiO2 ratio, change from baseline, Mean [2, 17]: 160.6
SpO2/FiO2 ratio, change from baseline, Median [2, 17]: 195.1
SpO2/FiO2 ratio, raw data, Mean [2, 17]: 436.0
SpO2/FiO2 ratio, raw data, Median [2, 17]: 457.1
median change in SpO2/FiO2 ratio from baseline ([2]; 600 mg, Day 15): 135.1
Change from baseline in SpO2/FiO2 ratio, point estimate [2, 17]: 174.65
median change from baseline in SpO2/FiO2 ratio ([2]; 600 mg, Day 15): 195.1
median time to improvement of oxygenation (SpO2 >=92% breathing room air) ([2]; 600 mg, Kaplan-Meier, Efficacy population): 6 days
Number of Days without need for Oxygen Support and Alive, Mean [2, 18]: 20.5 days
Number of Days without need for Oxygen Support and Alive, Median [2, 18]: 23.0 days
Number of Respiratory Failure-Free Days and Alive, Mean [2, 18]: 25.9 days
Number of Respiratory Failure-Free Days and Alive, Median [2, 18]: 28.0 days
Number of Ventilator-Free Days and Alive, Mean [2, 18]: 26.0 days
Number of Ventilator-Free Days and Alive, Median [2, 18]: 28.0 days
